From patent US20230293433A1, “METHOD OF MANUFACTURING MICELLES FOR DRUG DELIVERY” (Wisconsin Alumni Research Foundation, priority 2022, published 2023) come the findings set out here.

Type in all cases: physicochemical
Series [1] is described as follows: Encapsulation efficiency and drug loading of PEG-assist micelles (centrifugation, HPLC).
Procedure: In order to prepare drug-loaded micelles, PTX (at a weight ratio of 1:2 w/w PTX: PEG4kDa-b-PLA2.2kDa corresponding to target loading of ca. 33 wt. %) was added to the mixture prior to heating to 60° C. The amount of water when PTX was present in the formulation was adjusted to aim for 4 mg/mL PTX level. […] The hydration process was performed under different conditions including rapid hydration (vortexing after addition of water) or slow hydration (a two-step hydration protocol consisting of addition of half of the target water volume followed by mixing and then addition of the rest followed by gentle mixing at 50 rpm in a rotary mixer). Micelles with the target loadings of 10 and 20 wt. % as well as 1 mg/mL PTX target level were prepared after optimizing the process parameters and used for other experiments such as stability measurement, scalability study and freeze-drying. To prepare formulations with 1 mg/mL PTX target level at 10 or 20 wt. % target loading, 1 mg PTX together with 9 or 4 mg copolymer were mixed with 170 or 75 mg PEG, respectively, and heated to 60° C. to obtain a transparent mixture. The added amounts of PEG keep the block copolymer concentration at 5.0 wt. % in the mixture. The mixture was cooled down to 40° C., incubated for 2 h followed by hydration with 1 mL DI water at 40° C. to obtain drug-loaded polymeric micelles. The samples were cooled down to room temperature and analyzed.
To measure the encapsulation efficiency, unencapsulated drug was first removed by centrifugation at 10000 g for 10 min. Following centrifugation, 50 μl of supernatant for each sample was mixed with 50 μl DI water and 400 μl acetonitrile (ACN). High performance liquid chromatography (HPLC, Prominence, Shimadzu, Japan) equipped with an autosampler, a C18 column and a UV-Vis detector was employed to measure PTX content. PTX was detected at 228 nm absorption wavelength by injecting 10 μl sample through an 80/20 ACN/water v/v mixture as the mobile phase under the flow rate of 0.5 mL/min. […]
A short description of series [2]: Particle size, PdI and zeta potential by dynamic light scattering. The following applies: PROTAC-loaded PEG-b-PLA micelles, PEG1000, hydrated at 40° C. The protocol:
Dynamic light scattering (DLS, nano ZS, Malvern) was used to measure particle size distribution and to investigate micelle formation. For particle size analysis, the measurements were carried out at 25° C. using water as dispersant.

Series [3] can be described thus: Solubility of PTX in PEG-water mixtures. The following applies: all examined PEG molecular weights. From the text:
To begin with, we measured the solubility of PTX in mixtures of water and PEG of different molecular weights as a function of water content. Hydrophobic drugs such as PTX are highly soluble in liquid PEG. Addition of water, however, if surpasses a critical point, will result in precipitation of PTX (see FIG. 4). This critical point is positioned near 50.0 wt. % water content (or water:PEG 1:1 w/w ratio) for all the examined molecular weights. In other words, presence of equal or larger amount of water in a PEG-water mixture prohibits PTX solubility. Considering the PEG-assist preparation procedure, the water content always well exceeds the critical value in the final product (ca. 85.0, 92.0 or 96.0 wt. % water content at 1 mg/mL PTX level for 10, 20 or 33 wt. % target loading, respectively). Therefore, PEG-water mixture cannot play any solubilization role for PTX in the proposed system, and the drug is expected to mainly reside in the PEG-b-PLA micelles' core.

Series [4] is described as follows: Stability of micelle formulations at room temperature. The following applies: 20 wt. % target loading, 1 mg/mL, PEG1000, 40° C. The procedure: We considered stability, applicability to other drugs and copolymers, scalability and long-term preservation as four more criteria to evaluate the PEG-assist method. The stability of PTX-loaded PEG-b-PLA micelles prepared at 20 wt. % target loading with 1 mg/mL target PTX level is shown in FIG. 9A. All the samples were prepared at saturation temperature i.e. 40° C. […] In other words, PTX remains soluble after 8 hours incubation at room temperature without any significant loss for any of the PEG molecular weights (p>0.05). […] We observed that all the samples were completely transparent without any visual precipitation within the 8 h time frame. […] The inherent incompatibility of PTX with the micelle core can be alleviated using acyl and ester prodrug strategies for physical loading purposes [Tam, Y. T., et al., “Poly (ethylene glycol)-block-poly (d, 1-lactic acid) micelles containing oligo (lactic acid) 8-paclitaxel prodrug: In Vivo conversion and antitumor efficacy” J. Control. Rel., 2019. 298:186-193; Tam, Y. T., J. Gao, and G. S. Kwon, “Oligo (lactic acid) n-paclitaxel prodrugs for poly (ethylene glycol)-block-poly (lactic acid) micelles: loading, release, and backbiting conversion for anticancer activity” J. Am. […]
The samples in Example 16, were monitored for stability after reconstitution. The particle size and PdI was measured at different time points (1, 2 and 7 days).

The mark [5] stands for this setting: PROTAC-loaded PEG-b-PLA micelles, PEG1000, hydrated at 40° C.

Regarding `COc1cc2ncnc(Nc3ccc(F)c(Cl)c3)c2cc1OCCCCCOCCOCCC(=O)N[C@H](C(=O)N1C[C@H](O)C[C@H]1C(=O)NCc1ccc(-c2scnc2C)cc1)C(C)(C)C` [Gefitinib-based PROTAC3], in series [1] (setting [5]), the “% Drug Loading” value amounted to 17.2% and the “% Encapsulation Efficiency” value stood at 83.0%. In series [2], this molecule yielded a PdI of 0.208, a Size of 34.1 ± 6.5 nm and a Zeta potential of 3.39 ± 14.2 mV.

For the molecule `CC(=O)O[C@H]1C(=O)[C@@]2(C)[C@H]([C@H](OC(=O)c3ccccc3)[C@]3(O)C[C@H](OC(=O)[C@H](O)[C@@H](NC(=O)c4ccccc4)c4ccccc4)C(C)=C1C3(C)C)[C@]1(OC(C)=O)CO[C@@H]1C[C@@H]2O` [PTX, Paclitaxel], in series [3], the “critical water content of PEG-water mixture above which PTX precipitates” value was roughly 50.0 wt. %.

Consider `C=CCNC1=C2C[C@@H](C)C[C@H](OC)[C@H](O)[C@@H](C)/C=C(\C)[C@H](OC(N)=O)[C@@H](OC)/C=C\C=C(/C)C(=O)NC(=CC1=O)C2=O` [Sample 17AAG], for which, in series [1] (17AAG, 20 wt. % target loading, 1 mg/mL, PEG1000, 40° C.), the encapsulation efficiency came out at 80.2±2.1%. Further, the “time stable at room temperature” value in series [4] is listed as “at least 24 h”.
